Entries after “also recorded” stand apart in the source; their conditions may differ.
Tested on: 3T3-L1 preadipocytes
Test: Adipocyte differentiation / adipogenesis (Oil red-O staining, leptin and resistin ELISA)
Assay type: cell-based, murine
Protocol: 3T3-L1 preadipocytes are stimulated to differentiate to a rounded phenotype and accumulate lipids in the form of lipid droplets when treated with dexamethasone, isobutylmethylxanthine (IBMX), and insulin [54]. The 3T3-L1 cells are primed for differentiation by the incubation with IBMX and dexamethasone, and in some cells insulin, for 24 hrs, then, insulin is withdrawn and replaced with various concentrations of NPY (FIG. 5).
ELISA: NPY ELISA system are purchased from Penninsula Laboratories, bFGF, VEGF and mouse leptin ELISA kits from R&D systems, mouse adiponectin ELISA kit from Linco Research and catecholamine detection system—3CAT EIA from Diagnostic Systems Laboratories. The assays are performed according to the manufacturers' procedures.
Oil Red O staining: Oil Red O solution (0.36% Oil Red O solution in 60% isopropanol) is used to stain lipid droplets in mature adipocytes and paraffin embedded tissues (Chemicon Adipogenesis Assay kit).
1. Cell culture: 3T3-L1 preadipocyte cells, (gift from Dr. Lane,^34) were cultured in DMEM high glucose media with glutamine, 10% calf sera (Gemini Bioproducts), d-Biotin (8 μg/ml) and Pantothenate (8 μg/ml) (Sigma). SK-N-BE(2) neuroblastoma cells (ATCC) were cultured in EMEM/F12K with 10% fetal bovine sera (FBS). HMVEC endothelial cells (Cambrex) were cultured in endothelial cell growth media (Cambrex). All media was supplemented with 100 units/ml penicillin, 100 μg/ml streptomycin and […] amphotericin. 2. Proliferation assay: Cells were plated onto 96-well dishes, growth-arrested in serum-free media for 24 h, and then were treated with the desired factors for 24 h in the culture media supplemented with 0.25% FBS; 4 hr after treatment 0.5 μCi [^3H] thymidine was added to each well. After 24 h, cells were harvested in a 96-well harvester (Tomtec) and counted in a Betaplate Liquid Scintillation Counter (Wallac). 3. Co-culture: For mitogenic assay and expression studies, co-culture was performed in a Costar Transwell system. Cells were plated on 6-well plates or inserts with 0.4 μm Polyester membranes. At 30% confluence, the inserts were combined with wells containing other cells. Co-culture of neuroblastomas with endothelial cells (EC) were carried out in EC media and preadipocytes in preadipocyte growth media. After the respective treatment, the cells growing on the plates were harvested for RNA isolation. For the mitogenic assay, cells were first growth-arrested in serum-free media for 24 hr, then the inserts placed into the plates and cells treated with desired factors in 0.25% FBS. After 48 hr, the cells were counted with a Beckman Coulter Counter. In both co-culture models, media was collected for Leptin (R&D Systems), Resistin (R&D Systems), and NPY (Bachem) ELISA. 4. Real-time RT-PCR: RNA was isolated using Tri Reagent (Sigma) and cDNA synthesized by iScript cDNA synthesis kit (BioRad). ICycler iQ Detection System (BioRad) was used to perform Real Time PCR. cDNA was amplified for 40 cycles using TaqMan PCR Reagent Kit and pre-designed primers and fluorescein-labeled probes from Applied Biosystems, as previously described^16, according to the manufacturer's procedure. The results were analyzed using software provided by BioRad and expression levels calculated by the comparative CT method using β-actin as an endogenous reference gene, according to the Applied Biosystems' ABI PRISM 7700 User Bulletin #2. 5. TUNEL: TUNEL reaction was performed using In Situ Cell Detection Kit (Roche Diagnostic) and signal converted to visible light using AP-converter. The density of TUNEL positive cells will be measured using NIH ImageJ software (using a plugin written by Wayne Rasband). 6. ELISA: ELISA kits for: NPY (Bachem Laboratories), mouse Leptin, Corticosterone, and Resistin (R&D systems), rat/mouse Insulin and mouse Adiponectin (Linco Research), and mouse Osteocalcin (Biomedical Technologies, Inc.) were used. The assays were performed according to the manufacturers' procedures. 7. […]

Compound	adipogenesis in cells not originally primed by insulin (NPY by itself)	leptin secretion (differentiated 3T3-L1 adipocytes)	differentiation into adipocytes (adipogenesis) (insulin preconditioned / primed 3T3-L1 cells, NPY 1×10-14 to 1×10^-8 M)	resistin secretion (preadipocytes primed for differentiation)	lipid deposition / lipid filling (Oil red-O staining) (primed 3T3-L1 cells, insulin replaced with NPY)	block of NPY-induced leptin and resistin secretion and lipid filling (Y2R antagonist)
neuropeptide Y [NPY]	unable to stimulate adipogenesis	increases leptin secretion; also recorded: increased	stimulated differentiation into adipocytes; also recorded: stimulating adipogenesis	increased	markedly increased	–
N=C(N)NCCC[C@H](NC(=O)CC1(CC(=O)N2CCN(C3c4ccccc4NC(=O)c4ccccc43)CC2)CCCC1)C(=O)NCCn1c(=O)n(-c2ccccc2)n(-c2ccccc2)c1=O (stereo partly drawn) [BIIE0246]	–	–	–	–	–	blocked

— US20090317376A1, “Compositions And Methods For Lipo Modeling” (Georgetown University MEDICAL SCHOOL, priority 2005, published 2009)
